Emax data for two compounds are collected here from patent US12435087B2, “Modulators of DCN-1 and methods of use thereof” (Cellarity, Inc., priority 2023, dated 2025).

This test addresses DCN1 protein (Homo sapiens (Human), UniProt Q96GG9). The experiment in a line: Intact protein MS analysis with the RapidFire-TOF system (covalent adduct formation). The test is classed as binding. Particulars: 400 nM DCN1, incubated at room temperature for 3 hours. An outline of the steps: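 Tag-free His-TEV-DCN1 expressed in E. coli at 400 nM in 25 mM Tris-HCl, 200 mM NaCl, 1 mM DTT, incubated with 11 compound concentrations at room temperature for 3 h unless otherwise specified. Quenched with 0.2% formic acid; intact-protein RapidFire Q-TOF MS, deconvoluted to detect parent and compound-adduct masses.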

Chain of DCN1 protein (Q96GG9 whole entry): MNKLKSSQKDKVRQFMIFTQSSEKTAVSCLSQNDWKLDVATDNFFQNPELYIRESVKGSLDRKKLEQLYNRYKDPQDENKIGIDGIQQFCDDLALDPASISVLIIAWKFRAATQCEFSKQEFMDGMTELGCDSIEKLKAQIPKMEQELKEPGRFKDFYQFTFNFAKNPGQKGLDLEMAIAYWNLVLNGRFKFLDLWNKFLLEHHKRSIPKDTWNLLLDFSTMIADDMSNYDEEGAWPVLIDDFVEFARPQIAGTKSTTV

Consider `C=C(CN1CCOCC1)C(=O)Nc1cccc([C@@H]2c3c(C)nn(-c4ccccc4)c3N(CC)C(=O)[C@H]2NC(=O)c2cccc(C(F)(F)F)c2)c1` [Compound I-2, N-((4R,5S)-7-ethyl-3-methyl-4-(3-(2-(morpholinomethyl)acrylamido)phenyl)-6-oxo-1-phenyl-4,5,6,7-tetrahydro-1H-pyrazolo[3,4-b]pyridin-5-yl)-3-(trifluoromethyl)benzamide], for which the Emax was in the range of 80 to 100%.

`C/C=C(\CN1CCN(C2COC2)CC1)C(=O)Nc1cccc([C@@H]2c3cnn(-c4ccccc4)c3N(CC)C(=O)[C@H]2NC(=O)c2csc(C(F)(F)F)n2)c1` [Compound I-234, N-((4R,5S)-7-ethyl-4-(3-((E)-2-((4-(oxetan-3-yl)piperazin-1-yl)methyl)but-2-enamido)phenyl)-6-oxo-1-phenyl-4,5,6,7-tetrahydro-1H-pyrazolo[3,4-b]pyridin-5-yl)-2-(trifluoromethyl)thiazole-4-carboxamide]: the Emax was in the range of 80 to 100%.
